Active and inactive are the calls of the source.
Tests used:
[1] = target: Serine/threonine-protein phosphatase PP1-alpha catalytic subunit (Homo sapiens, UniProt P62136); test: inhibition of protein phosphatase 1 activity – biochemical, fluorescence, dose response (AID 2394)
Caspase-3 [2] = target: T1, Caspase-3 (Homo sapiens, UniProt P42574); assay type: functional
T1 sequence (P42574 whole entry): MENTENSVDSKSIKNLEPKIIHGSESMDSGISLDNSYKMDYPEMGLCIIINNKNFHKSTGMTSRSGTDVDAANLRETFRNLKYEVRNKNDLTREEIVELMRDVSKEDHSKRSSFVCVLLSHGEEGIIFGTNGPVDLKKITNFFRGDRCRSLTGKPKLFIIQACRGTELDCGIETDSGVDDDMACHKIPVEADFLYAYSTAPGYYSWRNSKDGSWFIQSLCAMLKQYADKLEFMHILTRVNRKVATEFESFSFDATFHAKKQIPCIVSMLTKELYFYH

[3] = target: T2, Sentrin-specific protease 6 (Homo sapiens, UniProt Q9GZR1); test: SAR Analysis of small molecule inhibitors of Sentrin-specific protease 6 (SENP6) using a Luminescent assay. [Related pubchem assays (depositor defined):AID2582, AID2599]; assay type: functional
T2 sequence (Q9GZR1 whole entry): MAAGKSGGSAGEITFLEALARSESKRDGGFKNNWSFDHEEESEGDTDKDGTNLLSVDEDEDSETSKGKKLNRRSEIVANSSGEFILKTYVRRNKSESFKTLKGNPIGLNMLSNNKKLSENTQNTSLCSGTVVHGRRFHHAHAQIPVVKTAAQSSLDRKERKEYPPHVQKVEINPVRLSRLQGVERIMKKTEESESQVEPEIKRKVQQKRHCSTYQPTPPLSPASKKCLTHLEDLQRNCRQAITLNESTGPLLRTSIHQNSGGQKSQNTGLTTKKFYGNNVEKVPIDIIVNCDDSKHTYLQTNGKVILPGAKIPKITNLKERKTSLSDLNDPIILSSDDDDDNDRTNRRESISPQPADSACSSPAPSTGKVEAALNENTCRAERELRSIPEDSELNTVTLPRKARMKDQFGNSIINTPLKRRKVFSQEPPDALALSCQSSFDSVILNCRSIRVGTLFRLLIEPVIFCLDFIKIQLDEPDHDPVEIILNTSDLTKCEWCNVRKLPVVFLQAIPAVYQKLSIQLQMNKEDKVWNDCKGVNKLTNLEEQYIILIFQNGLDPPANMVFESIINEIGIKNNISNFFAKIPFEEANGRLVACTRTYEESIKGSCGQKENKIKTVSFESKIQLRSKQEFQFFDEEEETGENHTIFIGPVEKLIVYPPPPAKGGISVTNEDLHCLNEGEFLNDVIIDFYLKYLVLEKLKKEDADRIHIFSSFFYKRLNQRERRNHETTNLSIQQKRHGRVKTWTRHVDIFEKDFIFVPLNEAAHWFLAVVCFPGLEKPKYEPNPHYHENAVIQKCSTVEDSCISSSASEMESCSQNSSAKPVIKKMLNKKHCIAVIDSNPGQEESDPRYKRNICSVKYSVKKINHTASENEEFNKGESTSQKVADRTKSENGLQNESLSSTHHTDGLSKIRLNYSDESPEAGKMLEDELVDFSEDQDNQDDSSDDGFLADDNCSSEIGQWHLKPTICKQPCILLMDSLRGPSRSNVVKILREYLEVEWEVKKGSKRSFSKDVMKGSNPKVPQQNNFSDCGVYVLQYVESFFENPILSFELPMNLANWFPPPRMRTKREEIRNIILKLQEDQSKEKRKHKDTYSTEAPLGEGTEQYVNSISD

[4] = Trypanosoma cruzi growth suppression in host cells – NIH3T3 host cells, beta-gal luminescence, confirmation (AID 2044); assay type: functional, cell-based;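 note: intracellular parasites grown in NIH/3T3 mouse fibroblasts as host cells; luminescent beta-galactosidase reporter signal from transgenic T. cruzi replicating inside host cells; inhibitors lower the luminescence signal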
[5] = NIH3T3 cell viability loss – ATP luminescence, mouse fibroblasts, counter-screen, dose response (AID 2010); assay type: functional, cell-based;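 note: cells exposed to compound for about 90 hours before reading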
Caspase-3 [6] = target: T1, Caspase-3; test: SAR Analysis of small molecule inhibitors of Sentrin-specific proteases (SENPs) using a Caspase-3 Selectivity assay. [Related pubchem assays (depositor defined):AID2540, AID2599, AID434973, AID489001]; assay type: functional
[7] = tested on: Streptococcus sp. 'group A'; test: Streptococcus pyogenes SK(-)GAS viability under kanamycin – luminescence, BacTiterGlo, confirmation, counter-screen for streptokinase expression inhibitor project, dose response (AID 1900); assay type: functional, organism-based
[8] = target: Delta-type opioid receptor (Homo sapiens, UniProt P41143); test: Counterscreen for agonists of heterodimerization of the mu 1 (OPRM1) and delta 1 (OPRD1) opioid receptors: Luminescence-based cell-based high throughput dose response assay to identify agonists of OPRD1 homodimerization. [Related pubchem assays (depositor defined):AID504326, AID504355, AID504692, AID504904, AID504905]; assay type: functional
[9] = bead-based luminescence quenchers, dual-tagged ARNT – biochemical, AlphaScreen, cherry-pick, artefact control for ARNT-TACC3 interaction inhibitor project, dose response (AID 651705); assay type: functional;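 note: AlphaScreen bead proximity signal that flags compounds interfering with the detection technology; potency reflects signal decrease which marks the compound as an assay artifact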

Sequence of Serine/threonine-protein phosphatase PP1-alpha catalytic subunit (P62136 whole entry): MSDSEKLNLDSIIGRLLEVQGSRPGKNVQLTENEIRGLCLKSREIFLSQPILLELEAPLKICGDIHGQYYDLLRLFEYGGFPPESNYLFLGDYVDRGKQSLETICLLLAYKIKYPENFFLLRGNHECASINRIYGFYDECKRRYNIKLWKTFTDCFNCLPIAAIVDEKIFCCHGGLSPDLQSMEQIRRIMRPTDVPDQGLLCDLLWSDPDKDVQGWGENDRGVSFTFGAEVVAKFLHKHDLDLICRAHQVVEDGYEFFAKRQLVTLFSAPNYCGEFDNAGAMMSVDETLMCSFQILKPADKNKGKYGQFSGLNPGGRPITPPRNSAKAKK
Sequence of Delta-type opioid receptor (P41143 whole entry): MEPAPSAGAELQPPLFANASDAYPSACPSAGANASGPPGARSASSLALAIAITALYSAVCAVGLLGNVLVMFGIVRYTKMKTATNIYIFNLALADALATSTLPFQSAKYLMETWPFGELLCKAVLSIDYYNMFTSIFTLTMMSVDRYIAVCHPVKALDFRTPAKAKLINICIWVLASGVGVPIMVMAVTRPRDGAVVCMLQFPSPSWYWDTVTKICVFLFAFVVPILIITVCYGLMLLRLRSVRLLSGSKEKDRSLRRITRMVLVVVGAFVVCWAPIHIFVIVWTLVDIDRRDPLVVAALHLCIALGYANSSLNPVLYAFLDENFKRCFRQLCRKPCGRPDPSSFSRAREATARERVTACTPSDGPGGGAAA

For `Cc1ccc(C(=O)NNc2cc(N3CCCC3)nc(N3CCCC3)n2)cc1`, the IC50 [1] was 64 µM (not active), the IC50 (Caspase-3 [2]) was > 100 µM (inactive) and the IC50 [3] was 2.3 µM (active). For the same molecule, the EC50 [4] was 2.3 µM (active), the EC50 [5] was > 30 µM (not active) and the IC50 (Caspase-3 [6]) was > 99 µM (inactive).
With `Cc1cc(/C=C2\SC(=S)N(C)C2=O)c(C)n1-c1ccc(O)cc1` the EC50 [7] was 3.41 µM (active) and the EC50 [8] was 15.1 µM (inactive).
For `COC(=O)c1cccc(-c2ccc(C(c3c(C)n[nH]c3O)c3c(C)n[nH]c3O)o2)c1`, the AC50 [9] was 107 µM (active).
